The assay relates to 138582-337-R-J1-PDC complex spheroid viability. Kind of assay: Anticancer human tumor 138582-337-R-J1-PDC patient-derived Merkel cell tumor cell line growth inhibition. As to conditions: for viability, T/C: stronger effect = lower value; for IC50: curve of compound. From the text: Multicellular complex tumor spheroid response to LSD1 Inhibitor Iadademstat in combination with a variety of drugs and investigational agents in selected tumor cell lines
The current study was undertaken to assess response to LSD1 inhibitors in combination with standard-of-care drugs and investigational agents in solid tumor complex spheroid models as well as in the K-562 leukemia. Complex spheroids include a stromal component modeled by human endothelial cells (HUVEC) and fibroblasts modeled by human mesenchymal stem cells (MSCs). The concentration ranges selected for each drug and investigational agent were based upon clinically achievable concentrations if the clinical Cmax of the agent was known.
Compounds. The drugs and investigational agents used in this study are listed on Table 1. All of the agents used, including staurosporine (NSC755774) and gemcitabine (NSC613327), were obtained from the Developmental Therapeutics Program, NCI. FDA-approved anticancer drugs are available from the NCI at http://dtp.nci.nih.gov/branches/dscb/oncology_drugset_explanation.html. Drugs and investigational agents were >95% pure by proton nuclear magnetic resonance (NMR) and liquid chromatography/mass spectrometry (LC/MS). Stock solutions were prepared at 400x in DMSO, stored at -70 degrees C, and diluted in fresh medium prior to their use. The final concentration of DMSO in cell culture wells never exceeded 0.25% (v/v). The FDA-approved anticancer drug set is available from the Developmental Therapeutics Program at https://dtp.cancer.gov/organization/dscb/obtaining/available_plates.htm. All drugs and investigational agents were tested over a range starting from a high concentration at or near the clinical Cmax and decreasing in half-log increments. If the clinical Cmax for an agent had not been determined, the highest concentration tested was 10 microM.
Cell Lines. The patient-derived cancer cell (PDC) lines: 292921-168-R-J2-PDC, K24384-001-R-PDC, and 521955-158-R2-J5-PDC pancreatic carcinomas, 556581-035-R-J1 ovarian carcinoma, 324938-238-R-J1-PDC, 855422-203-R-J1-PDC and 883617-216-R-J1-PDC urothelial bladder carcinomas, 743489-274-T-PDC renal cell carcinoma, 138582-R-J1 Merkel cell tumor, K60290-347-R-J1 and K57222-313-R-J1-PDC glioblastomas, 653999-131-R-J2-PDC, LG0703-F948-PDC, and 349418-098-R-PDC non-small cell lung carcinomas, 885512-296-R-J2-PDC, 171881-019-R-J1-PDC breast carcinomas and 186277-243-T-J2-PDC and 233499-124-R-J2-PDC colon carcinomas were obtained from the NCI Patient-Derived Models Repository (PDMR, https://pdmr.cancer.gov). The established cell lines NCI/ADR-RES (RRID:CVCL_14520 and OVCAR-5 (RRID:CVCL_1628) ovarian carcinomas, 786-O (RRID:CVCL_1051) and A498 (RRID:CVCL_A498) renal cell carcinoma, NCI-H211 (ATCC, cat. CRL-5824; RRID:CVCL_1529), NCI-H196 (ATCC, cat. CRL-5823, RRID:CVCL_1509), SW 1271 (ATCC, cat. CRL-2177, RRID:CVCL_1716) and NCI-H1876 (ATCC, cat. CRL-5902, RRID:CVCL_1503) small cell lung carcinomas, MDA-MB-231 (RRID:CVCL_0062) and MDA-MB-468 (RRID:CVCL_0419)breast carcinomas (10-12). Pooled donor human umbilical vein endothelial cells (HUVEC, Lonza, cat. CC-2519) and human mesenchymal stem cells (hMSC, Lonza, cat. PT-2501) were purchased from Lonza (Walkersville, MD).
Cell Culture. All cells were maintained in an incubator at 37 degrees C and 5% CO2 with 95% humidity. The PDC lines were cultured according to standard operating procedures established by the NCI PDMR (https://pdmr.cancer.gov). Briefly all PDCs were thawed and cultured in Matrigel-coated flasks prepared with a working solution of 1X Ham's F-12 nutrient mix, without supplementation (Invitrogen, Waltham, MA, cat. 11765054), 100 U/mL penicillin-streptomycin (Invitrogen, cat. 15140122), and 2.5% Matrigel (Corning Inc., Corning, NY, cat. 354248) for the first three passages. […]

Among the data in PubChem BioAssay AID1918931 (Molecular Pharmacology Branch, DTP, NCI, 2023) are viability, T/C and IC50 values, retold here.

Several values for one entry are separate records, joined by “and”; a condition that tells them apart may be missing. Equal entries are not always repeated.
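Further: spheroids exposed to agents for 7 days.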

As for `Cn1ncnc1C1c2n[nH]c(=O)c3cc(F)cc(c23)NC1c1ccc(F)cc1` (configuration not stated), the IC50 is more than 0.1 µM. Further, where the note is “compound 0.000316 µM”, the viability, T/C is 96.7% and 103%. Besides, the viability, T/C (compound 0.001 µM) was 93.5% and 95.9%. Also, the viability, T/C (compound 0.00316 µM) was 83.5% and 99.5%. Also, under “compound 0.01 µM”, the viability, T/C was 86.7% and 92.9%. Moreover, where the note is “compound 0.0316 µM”, the viability, T/C was 94.4% and 70.4%. Moreover, the viability, T/C (compound 0.1 µM) was 91.1% and 67.1%.
Regarding `NS(=O)(=O)OCC1CC(n2ccc3c(NC4CCc5ccccc54)ncnc32)CC1O` (configuration not stated), the IC50 is 0.504 µM and 0.082 µM. For the same molecule, the viability, T/C (compound 0.00949 µM) is 96% and 74.9%. In addition, where the note is “compound 0.03 µM”, the viability, T/C is 104% and 63.2%. Besides, the viability, T/C (compound 0.0949 µM) was 93.9% and 50.6%. For the same molecule, the viability, T/C (compound 0.3 µM) is 67.3% and 30.4%. The viability, T/C (compound 0.949 µM) is 28% and 26.4%. Further, for the setting “compound 3 µM”, the viability, T/C is 27.5% and 32.5%.
As to `Nc1ccccc1NC(=O)c1ccc(CNC(=O)OCc2cccnc2)cc1`, the half-maximal inhibitory concentration (IC50) is 1.16 µM and 0.279 µM. Further, under “compound 0.00949 µM”, the viability, T/C is 96.2% and 67%. Also, the viability, T/C (compound 0.03 µM) is 93.9% and 66.7%. Besides, the viability, T/C (compound 0.0949 µM) was 86.3% and 61.3%. In addition, the viability, T/C (compound 0.3 µM) was 80.7% and 49.9%. For the same molecule, where the note is “compound 0.949 µM”, the viability, T/C is 61.3% and 13.2%. The viability, T/C (compound 3 µM) was 4.61% and 0.47%.
Turning to `Nc1ccn(C2OC(CO)C(O)C2(F)F)c(=O)n1` (configuration not stated), the concentration for half-maximal inhibition (IC50) was more than 0.3 µM. Further, the viability, T/C (compound 0.000949 µM) was 80.2% and 102%. Besides, the viability, T/C (compound 0.003 µM) is 94.3% and 100%. Further, the viability, T/C (compound 0.00949 µM) was 86.5% and 77.4%. Besides, under “compound 0.03 µM”, the viability, T/C is 82.4% and 55.1%. Also, under “compound 0.0949 µM”, the viability, T/C is 80% and 59.3%. In addition, the viability, T/C (compound 0.3 µM) is 112% and 53.6%.
As to `Nc1ncn(C2CC(O)C(CO)O2)c(=O)n1` (configuration not stated), the IC50 is more than 1 µM. In addition, where the note is “compound 0.00316 µM”, the viability, T/C was 102% and 109%. In addition, the viability, T/C (compound 0.01 µM) was 78.7% and 124%. Moreover, the viability, T/C (compound 0.0316 µM) was 90% and 123%. Moreover, the viability, T/C (compound 0.1 µM) was 83.7% and 111%. Further, the viability, T/C (compound 0.316 µM) is 112% and 122%. The viability, T/C (compound 1 µM) is 112% and 91.2%.
Consider `Nc1ncn(C2CC(O)C(CO)S2)c(=O)n1` (configuration not stated), for which the half-inhibitory concentration (IC50) was more than 0.3 µM. The viability, T/C (compound 0.000949 µM) is 96.8% and 93.8%. Besides, under “compound 0.003 µM”, the viability, T/C was 82.8% and 110%. For the same molecule, under “compound 0.00949 µM”, the viability, T/C is 87.8% and 94.3%. The viability, T/C (compound 0.03 µM) was 94.6% and 92.3%. In addition, for the setting “compound 0.0949 µM”, the viability, T/C is 91.3% and 93.4%. In addition, under “compound 0.3 µM”, the viability, T/C was 80.5% and 74.7%.
For the molecule `O=C(C=Cc1cccc(S(=O)(=O)Nc2ccccc2)c1)NO`, the half-inhibitory concentration (IC50) was 0.616 µM and 0.0844 µM. Further, where the note is “compound 0.00949 µM”, the viability, T/C was 96.1% and 76.4%. Moreover, the viability, T/C (compound 0.03 µM) was 91.5% and 67.6%. Moreover, the viability, T/C (compound 0.0949 µM) was 90% and 49.2%. Further, the viability, T/C (compound 0.3 µM) is 73.3% and 23.6%. The viability, T/C (compound 0.949 µM) is 36% and 0.96%.
In the case of `O=C(C=Cn1cnc(-c2cc(C(F)(F)F)cc(C(F)(F)F)c2)n1)NNc1cnccn1`, the 50% inhibitory concentration (IC50) is 0.00991 µM and 0.013 µM. For the same molecule, the viability, T/C (compound 0.00316 µM) is 79.5% and 60.6%. In addition, the viability, T/C (compound 0.01 µM) was 49.6% and 56.1%. In addition, the viability, T/C (compound 0.0316 µM) was 24.6% and 29.2%. The viability, T/C (compound 0.1 µM) was 15.6% and 17.7%. Besides, where the note is “compound 0.316 µM”, the viability, T/C was 18.6% and 17.6%. Also, the viability, T/C (compound 1 µM) is 16.4% and 15.4%.
For the molecule `O=C(c1cc(Cc2n[nH]c(=O)c3ccccc23)ccc1F)N1CCN(C(=O)C2CC2)CC1`, the IC50 is more than 10 µM. Further, where the note is “compound 0.0316 µM”, the viability, T/C is 106% and 90%. Besides, the viability, T/C (compound 0.1 µM) is 71.7% and 93.4%. Besides, the viability, T/C (compound 0.316 µM) was 96.6% and 98.8%. In addition, the viability, T/C (compound 1 µM) was 83.5% and 71.4%. For the same molecule, the viability, T/C (compound 3.16 µM) was 78% and 57.2%. For the same molecule, where the note is “compound 10 µM”, the viability, T/C was 82.9% and 63.8%.

Usually viability, T/C stands for the ratio of treated to control. In general, IC50 refers to the concentration that gives 50% inhibition.
